# Assay results published in patent US20260062412A1, “NITROGEN-CONTAINING HETEROCYCLIC COMPOUND HAVING MYT1 INHIBITORY ACTIVITY” (CHUGAI SEIYAKU KABUSHIKI KAISHA, priority 2023, published 2026).
# Target: MYT1 protein (Homo sapiens (Human), UniProt Q99640)
# Assay: Test for binding to ATP binding site of MYT1 (Kinase Tracer 178 / Eu-Anti-GST antibody TR-FRET)
# Details: ATP binding site of MYT1, 30 minutes at room temperature
# MYT1 protein, sequence (Q99640 whole entry): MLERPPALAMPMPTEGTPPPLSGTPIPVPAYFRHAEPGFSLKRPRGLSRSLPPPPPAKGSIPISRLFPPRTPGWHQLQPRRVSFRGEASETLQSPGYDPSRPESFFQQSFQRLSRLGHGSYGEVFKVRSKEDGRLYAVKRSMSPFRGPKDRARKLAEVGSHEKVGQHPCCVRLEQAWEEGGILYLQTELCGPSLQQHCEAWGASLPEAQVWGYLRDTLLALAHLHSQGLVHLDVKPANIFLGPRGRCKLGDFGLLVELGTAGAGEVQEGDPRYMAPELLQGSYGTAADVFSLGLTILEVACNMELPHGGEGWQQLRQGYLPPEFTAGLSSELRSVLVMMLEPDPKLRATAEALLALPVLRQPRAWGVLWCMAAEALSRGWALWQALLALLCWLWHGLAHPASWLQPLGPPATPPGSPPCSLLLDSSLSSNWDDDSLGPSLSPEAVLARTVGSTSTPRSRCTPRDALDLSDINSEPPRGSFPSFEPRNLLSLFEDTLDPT
row,Structure (SMILES),IC50 [nM]
1,"N#C[C@H]1C[C@@H](c2cc3c(-c4ccc(F)c5[nH]ncc45)c(N)c(=O)[nH]c3c3cccnc32)C1 [Compound C178, (1s,3s)-3-[3-Amino-4-(7-fluoro-1H-indazol-4-yl)-2-oxo-1H-1,7-phenanthrolin-6-yl]cyclobutane-1-carbonitrile]",2.3
2,"N#C[C@H]1C[C@H](c2cc3c(-c4ccc(F)c5[nH]ncc45)c(N)c(=O)[nH]c3c3cccnc32)C1 [Compound C179, (1r,3r)-3-[3-Amino-4-(7-fluoro-1H-indazol-4-yl)-2-oxo-1H-1,7-phenanthrolin-6-yl]cyclobutane-1-carbonitrile]",0.84
3,"CC(C)(C)c1ccc2c(ccc3c(-c4ccc(F)c5[nH]ncc45)c(N)c(=O)[nH]c32)n1 [Compound C180, 3-Amino-8-tert-butyl-4-(7-fluoro-1H-indazol-4-yl)-1H-1,7-phenanthrolin-2-one]",41
4,"Cc1ccc2c(n1)c(I)cc1c(-c3ccc(F)c4[nH]ncc34)c(N)c(=O)[nH]c12 [Compound C181, 3-Amino-4-(7-fluoro-1H-indazol-4-yl)-6-iodo-8-methyl-1H-1,7-phenanthrolin-2-one]",23
5,"Cc1ccc2c(n1)c(C1CC1)cc1c(-c3ccc(F)c4[nH]ncc34)c(N)c(=O)[nH]c12 [Compound C182, 3-Amino-6-cyclopropyl-4-(7-fluoro-1H-indazol-4-yl)-8-methyl-1H-1,7-phenanthrolin-2-one]",5.5
6,"Cc1ccc2c(ccc3c(-c4ccc(F)c5[nH]ncc45)c(N)c(=O)[nH]c32)n1 [Compound C183, 3-Amino-4-(7-fluoro-1H-indazol-4-yl)-8-methyl-1H-1,7-phenanthrolin-2-one]",110
7,"Nc1c(-c2ccc(F)c3[nH]ncc23)c2cc(C(F)(F)F)c3ncccc3c2[nH]c1=O [Compound C187, 3-Amino-4-(7-fluoro-1H-indazol-4-yl)-6-(trifluoromethyl)-1H-1,7-phenanthrolin-2-one]",20
8,"Nc1c(-c2ccc(F)c3[nH]ncc23)c2cc(OC(F)(F)F)c3ncccc3c2[nH]c1=O [Compound C188, 3-Amino-4-(7-fluoro-1H-indazol-4-yl)-6-(trifluoromethoxy)-1H-1,7-phenanthrolin-2-one]",4.1
9,"Cc1cc2c(-c3ccc(F)c4[nH]ncc34)c(N)c(=O)[nH]c2c2cc(B(O)O)cnc12 [Compound C189, [3-Amino-4-(7-fluoro-1H-indazol-4-yl)-6-methyl-2-oxo-1H-1,7-phenanthrolin-9-yl]boronic acid]",18
10,"Nc1c(-c2cc(F)c(F)c3[nH]ncc23)c2cc(C3CC3)c3ncccc3c2[nH]c1=O [Compound C191, 3-Amino-6-cyclopropyl-4-(6,7-difluoro-1H-indazol-4-yl)-1H-1,7-phenanthrolin-2-one]",6
11,"CCc1cc2c(-c3cc(F)c(F)c4[nH]ncc34)c(N)c(=O)[nH]c2c2cccnc12 [Compound C192, 3-Amino-4-(6,7-difluoro-1H-indazol-4-yl)-6-ethyl-1H-1,7-phenanthrolin-2-one]",3.7
12,"CCOc1cc2c(-c3cc(F)c(Cl)c4[nH]ncc34)c(N)c(=O)[nH]c2c2cccnc12 [Compound C193, 3-Amino-4-(7-chloro-6-fluoro-1H-indazol-4-yl)-6-ethoxy-1H-1,7-phenanthrolin-2-one]",1.7
13,"CC(C)Oc1cc2c(-c3cc(F)c(Cl)c4[nH]ncc34)c(N)c(=O)[nH]c2c2cccnc12 [Compound C194, 3-Amino-4-(7-chloro-6-fluoro-1H-indazol-4-yl)-6-propan-2-yloxy-1H-1,7-phenanthrolin-2-one]",1.6
14,"Cc1cc2c(-c3cc(F)c(Cl)c4[nH]ncc34)c(N)c(=O)[nH]c2c2cccnc12 [Compound C196, 3-Amino-4-(7-chloro-6-fluoro-1H-indazol-4-yl)-6-methyl-1H-1,7-phenanthrolin-2-one]",3.6

# Second part, the molecule after the results:
row,IC50 [nM],Structure (SMILES)
1,20,"Nc1c(-c2cc(F)c(F)c3[nH]ncc23)c2ccc3ncccc3c2[nH]c1=O [Compound C197, 3-Amino-4-(6,7-difluoro-1H-indazol-4-yl)-1H-1,7-phenanthrolin-2-one]"
2,3.1,"Nc1c(-c2cc(F)c(F)c3[nH]ncc23)c2cc(Cl)c3ncccc3c2[nH]c1=O [Compound C198, 3-Amino-6-chloro-4-(6,7-difluoro-1H-indazol-4-yl)-1H-1,7-phenanthrolin-2-one]"
3,3.8,"Nc1c(-c2cc(F)c(F)c3[nH]ncc23)c2cc(O)c3ncccc3c2[nH]c1=O [Compound C199, 3-Amino-4-(6,7-difluoro-1H-indazol-4-yl)-6-hydroxy-1H-1,7-phenanthrolin-2-one]"
4,5.7,"Nc1c(-c2cc(F)c(F)c3[nH]ncc23)c2cc(C3CCC3)c3ncccc3c2[nH]c1=O [Compound C201, 3-Amino-6-cyclobutyl-4-(6,7-difluoro-1H-indazol-4-yl)-1H-1,7-phenanthrolin-2-one]"
5,7.7,"Nc1c(-c2cc(F)c(F)c3[nH]ncc23)c2cc(C3CCCC3)c3ncccc3c2[nH]c1=O [Compound C202, 3-Amino-6-cyclopentyl-4-(6,7-difluoro-1H-indazol-4-yl)-1H-1,7-phenanthrolin-2-one]"
6,17,"CC(C)Cc1cc2c(-c3cc(F)c(F)c4[nH]ncc34)c(N)c(=O)[nH]c2c2cccnc12 [Compound C203, 3-Amino-4-(6,7-difluoro-1H-indazol-4-yl)-6-(2-methylpropyl)-1H-1,7-phenanthrolin-2-one]"
7,10,"C=Cc1cc2c(-c3cc(F)c(F)c4[nH]ncc34)c(N)c(=O)[nH]c2c2cccnc12 [Compound C204, 3-Amino-4-(6,7-difluoro-1H-indazol-4-yl)-6-ethenyl-1H-1,7-phenanthrolin-2-one]"
8,3.4,"Nc1c(-c2cc(F)c(F)c3[nH]ncc23)c2cc(OC(F)F)c3ncccc3c2[nH]c1=O [Compound C205, 3-Amino-4-(6,7-difluoro-1H-indazol-4-yl)-6-(difluoromethoxy)-1H-1,7-phenanthrolin-2-one]"
9,4.1,"Nc1c(-c2cc(F)c(F)c3[nH]ncc23)c2cc(OC3CCC3)c3ncccc3c2[nH]c1=O [Compound C206, 3-Amino-6-cyclobutyloxy-4-(6,7-difluoro-1H-indazol-4-yl)-1H-1,7-phenanthrolin-2-one]"
10,1,"Cn1cc(-c2cc3c(-c4cc(F)c(F)c5[nH]ncc45)c(N)c(=O)[nH]c3c3cccnc23)cn1 [Compound C207, 3-Amino-4-(6,7-difluoro-1H-indazol-4-yl)-6-(1-methylpyrazol-4-yl)-1H-1,7-phenanthrolin-2-one]"
11,2.1,"Nc1c(-c2cc(F)c(F)c3[nH]ncc23)c2cc(N3CCOCC3)c3ncccc3c2[nH]c1=O [Compound C208, 3-Amino-4-(6,7-difluoro-1H-indazol-4-yl)-6-morpholin-4-yl-1H-1,7-phenanthrolin-2-one]"
12,1.5,"CN1CCN(c2cc3c(-c4cc(F)c(F)c5[nH]ncc45)c(N)c(=O)[nH]c3c3cccnc23)CC1 [Compound C209, 3-Amino-4-(6,7-difluoro-1H-indazol-4-yl)-6-(4-methylpiperazin-1-yl)-1H-1,7-phenanthrolin-2-one]"
13,1.3,"Nc1c(-c2cc(F)c(F)c3[nH]ncc23)c2cc(O[C@H]3C[C@H](F)C3)c3ncccc3c2[nH]c1=O [Compound C210, 3-Amino-4-(6,7-difluoro-1H-indazol-4-yl)-6-((1r,3r)-3-fluorocyclobutyl)oxy-1H-1,7-phenanthrolin-2-one]"
